Active and inactive are the calls of the source. The rule behind the calls is not given here.
Test system: Osteoblast
Test: Induction of mineralization in Sprague-Dawley rat calvaria derived primary osteoblast after 7 days by Alizarin Red S staining
Assay type: functional, cell-based

SMILES | Activity
COc1ccc(-c2coc3cc(O)ccc3c2=O)cc1 | Active
COc1ccc(-c2coc3cc(O)ccc3c2=O)cc1OC | Active
COc1ccc2c(=O)c(-c3ccc(O)cc3)coc2c1 | Active
COc1cc(O)c2c(=O)c(-c3ccc(O)cc3O)coc2c1 | Active

— ChEMBL document CHEMBL1143340, “Osteogenic activity of constituents from Butea monosperma” (Bioorg Med Chem Lett, 2009)
